Values joined by “and” are separate entries in the source; they are usually repeats but may differ in a detail not shown here. Identical values can stand only once. Like-named read-outs stand apart in the source and are kept apart here.

Experiment [1] has as its system VEGF-stimulated Flk-1 tyrosine phosphorylation. In words: Inhibition of VEGF-stimulated Flk-1 tyrosine phosphorylation in Flk-1/3T3 cells. It is filed as cell-based. Here is the method:
(§1) Starved NIII 3T3 cells (PDGF-BB and PDGF-AA), NIH 3T3 cells overexpressing either EGFR (EGF) or Flk-1 (VEGF) are pre-treated with the indicated concentrations of GFB-111 for 5 minutes before 10 minutes of stimulation with PDGF-BB (10 ng/ml), PDGF-AA (10 ng/ml), EGF (100 ng/ml) and VEGF (50 ng/ml). Cell lysates are run on SDS-PAGE gels, then transferred to nitrocellulose and Western blotted with anti-phosphotyrosine (4G 10) or anti-phosphorylated Erk1/Erk2 (New England Biolabs).
(§2) In order to identify molecules that would bind vascular endothelial growth factor (VEGF), Flk-1/3T3 cell-based assay is used that relies on VEGF-stimulation of its receptor, Flk-1, tyrosine phosphorylation and subsequent MAP-kinase activation. The assay used herein identical to that used for PDGF, except that NIH 3T3 cells that overexpress Flk-1 are used. GFB-116, which has four identical loops with the sequence GKGK (SEQ ID NO. 10) is shown to be very potent and selective toward blocking the ability of VEGF to stimulate Flk-1 tyrosine phosphorylation and subsequent MAP-kinase activation as measured by phospho erk-1 and erk-2 also referred to in the Table as p42 and p44 (Table 4A). A preferred embodiment of the invention is a compound that binds to a vascular endothelial growth factor, of the general structure III (above) in which R is n-butyl, n-propyl, or benzyl, and X comprise covalently attached identical cyclic peptide loops wherein R1, R2, R3, and R4 are each amino acid side chains, as broadly defined above, that define a tetrapeptide sequence, wherein said tetrapeptide is covalently attached at the amino and carboxy termini of said tetrapeptide to 3-aminomethyl-5-aminobenzamide linking group, and wherein said tetrapeptide sequence is GKGK (SEQ ID NO. 10), GDGY (SEQ ID NO. 6), or functionally related derivatives thereof.

Experiment [2] relates to IGF-1 stimulated MAP kinase activation. In words: Inhibition of IGF-1 stimulated MAP kinase (p42/p44) activation in IGFR/3T3 cells. It is filed as cell-based. Here is the method: (§3) In other experiments, starved NIH 3T3 cells (PDGF-AA, PDGF-BB, aFGF, bFGF), NIH 3T3 cells overexpressing EGFR. IGF-1R or Flk-1 and the human breast carcinoma SkBr3 that overexpresses ErbB2 (HRGβ) are pretreated with GFB-111 (100 μM) for 5 min before 10 min stimulation with the indicated growth factors at the concentrations shown above and aFGF (10 ng/ml), bFGF (50 ng/ml), IGF-1 (50 ng/ml) and HRGβ (10 ng/ml). Cell lysates are then immunoblotted with anti-phospho Erk1/Erk2 as described above.
The ability of the GFB library to block the ability of IGF-1 to stimulate the IFG-1 R tyrosine phosphorylation and MAP kinase activation is evaluated using the cell assay described above with IGF-1R/3T3 cells as target cell. […] A preferred embodiment of the invention is a compound that binds to an insulin-like growth factor-1, of the general structure III, wherein R is n-butyl, n-propyl, or benzyl, and X1, X2, X3, and X4 optionally comprise identical cyclic peptide loops of the general structure II, and wherein R1, R2, R3, and R4 are each amino acid side chains that define a tetrapeptide sequence, wherein said tetrapeptide is covalently attached at the amino and carboxy termini of said tetrapeptide to a 3-aminomethyl-5-aminobenzamide linking group.

The test system of experiment [3] is angiogenesis in A-549 tumors. Put plainly: Angiogenesis: Factor VIII immunostaining and microvessel count in A-549 tumors. It is filed as in vivo, nude mice. To be noted: for Microvessel count (Mean ± SD) 250X / Microvessel count (Mean ± SD) 400X: A-549 tumor. As for the experimental part: On the indicated termination day of each nude mouse experiment described above, (see also Table 2), the tumors are extracted and half frozen at −70° C., and half is fixed in 10% neutral buffered formalin for 6 hrs. After fixation the tissue samples are processed into paraffin blocks. Four micrometer-thick tissue sections are obtained from the paraffin blocks and stained with hematoxylin and eosin (H&E) (Richard-Allan Scientific, Kalamazoo, Mich.) using standard histologic techniques. Tissue sections are also subjected to immunostaining for Factor VIII using the avidin biotin peroxidase complex technique (Vectastatin Elite ABC Kit, Vector, Burlingame, Calif.). Rabbit polyclonal FVIII antibody (Von Willebrand Factor, Dako Corporation, Carpinteria, Calif.) is used at 1:400 dilution, following microwave antigen retrieval (4 cycles of 5 minutes each on high in 0.1M citrate buffer).

Experiment [4] deals with human lung adenocarcinoma A-549. In words: Antitumor efficacy, A-549 xenograft in nude mice. It is filed as in vivo. To be noted: for Inhibition of A-549 tumor growth in nude mice: 50 mg per kg per day.
Experiment [5] deals with VEGF-stimulated MAP kinase activation. Put plainly: Inhibition of VEGF-stimulated MAP kinase (p42/p44, Erk2/Erk1) activation in Flk-1/3T3 cells. It is filed as cell-based. To be noted: for IC50: Flk-1/3T3, VEGF stimulated. Here is the method:
as §1, §3, §2

In experiment [6] the test system is PDGF-stimulated Erk1/Erk2 activation. Put plainly: Inhibition of PDGF-stimulated activation of MAPK Erk1/Erk2 (p44/p42) in NIH 3T3 cells. It is filed as cell-based. The settings on record: for Inhibition of PDGF-stimulated MAPKinase activation: FIG. 13. As for the experimental part:
as §1, §3

For experiment [7], the system named is aFGF-stimulated MAP kinase activation of p42 and p44. In words: Inhibition of aFGF stimulation of p42/p44 MAP kinase in NIH 3T3 cells. It is filed as cell-based. As for the experimental part:
as §3
The ability of growth factor binding agents in the library of growth factor binding agents to block an aFGF signal is measured by aFGF-stimulation of MAP kinase activation of p42 and p44 essentially as described above for VEGF. NIH 3T3 cells are used as the target cell. […] A preferred embodiment of the invention is a compound that binds to acidic fibroblast growth factor, of the general structure III, in which R is n-butyl, n-propyl, or benzyl, and X1, X2, X3, and X4 optionally comprise covalently attached cyclic peptide loops of the general structure II, wherein R1, R2, R3, and R4 are each amino acid side chains that define a tetrapeptide sequence, wherein said tetrapeptide is covalently attached at the amino and carboxy termini of said tetrapeptide to a 3-aminomethyl-5-aminobenzamide linking group, and wherein said tetrapeptide sequence is as given, for example, in Table 5.

Setting [8] is: Flk-1/3T3, VEGF stimulated, read-out: (IC50) Inhibition Flk-1-Y-P.
[9] abbreviates: 100 μM, IGFR/3T3, IGF-1 stimulated.
[10] abbreviates: read-out: (IC50) Inhibition p42.
Where [11] appears, read: read-out: (IC50) Inhibition p44.
Setting [12] is: NIH 3T3, PDGF stimulated, head p42/Erk2 (p42 for GFB-132 to 137), read-out: (IC50) Inhibition p42/Erk2.
Setting [13] is: concentrations as high as 100 μM.

For the compound GKGK [GFB-116], the IC50 turned out to be 0.3 µM in experiment [1] (setting [8]), 5 µM in experiment [5] (setting [10]), 5 µM in experiment [5] (setting [11]) and 28 µM in experiment [6] (setting [12]). For the same compound, the % Inhibition (as a rule, the drop in the measured response relative to a control, in per cent) at 100 μM p44 in experiment [2] (setting [9]) was 25.2% and 43.5%. The “Microvessel count (Mean ± SD) 250X” value in experiment [3] (50 mpk) worked out at 5.56 ± 1.75. In addition, in experiment [3] (50 mpk), the “Microvessel count (Mean ± SD) 400X” value was determined as 3.46 ± 1.19. In addition, the “Inhibition of angiogenesis” value in experiment [3] (A-549 tumors) is recorded as “efficacious”. Moreover, in experiment [3] (A-549 tumors, 50 mpk), the “Inhibition of angiogenesis by microvessel counting” value was 70%. Besides, the “Inhibition of A-549 tumor growth in nude mice” value in experiment [4] is reported as “inhibits the growth”. Besides, in experiment [5] (FIG. 13), the “Block of VEGF-activation of the MAPKinases Erk1 and Erk2” value was “block”. Further, in experiment [6], the “Inhibition of PDGF-stimulated MAPKinase activation” value is recorded as “does not”. In experiment [7] (NIH 3T3), the “Block of aFGF-stimulation of MAP kinase activation of p42 and p44” value is given as “very effective”.

Take `CCCCOc1c2cc(C(=O)Nc3cc4cc(c3)C(=O)NCC(=O)N[C@@H](CC(=O)O)C(=O)NCC(=O)N[C@@H](Cc3ccc(O)cc3)C(=O)NC4)cc1Cc1cc(C(=O)Nc3cc4cc(c3)C(=O)NCC(=O)N[C@@H](CC(=O)O)C(=O)NCC(=O)N[C@@H](Cc3ccc(O)cc3)C(=O)NC4)cc(c1OCCCC)Cc1cc(C(=O)Nc3cc4cc(c3)C(=O)NCC(=O)N[C@@H](CC(=O)O)C(=O)NCC(=O)N[C@@H](Cc3ccc(O)cc3)C(=O)NC4)cc(c1OCCCC)Cc1cc(C(=O)Nc3cc4cc(c3)C(=O)NCC(=O)N[C@@H](CC(=O)O)C(=O)NCC(=O)N[C@@H](Cc3ccc(O)cc3)C(=O)NC4)cc(c1OCCCC)C2` [GFB-111]: the IC50 in experiment [1] (setting [8]) was 5 µM; in experiment [1] (read-out: IC50 VEGF-stimulated Flk-1 tyrosine phosphorylation and MAPK activation), 10 µM; in experiment [5] (setting [10]), 10 µM; in experiment [5] (setting [11]) it was 10 µM; in experiment [6] (NIH 3T3, FIG. 3A, read-out: IC50 PDGF-dependent activation of Erk1) it was 0.8 µM; in experiment [6] (NIH 3T3, FIG. 3A, read-out: IC50 PDGF-dependent activation of Erk2), 1.2 µM. Moreover, the IC50 in experiment [6] (setting [12]) turned out to be 2.6 µM. For the same compound, the “% Inhibition at 100 μM p42” value in experiment [2] (setting [9]) is −18.4%. Further, the “% Inhibition at 100 μM p44” value in experiment [2] (setting [9]) is 10.7%. Further, the “IGF-1-activation of Erk1/Erk2” value in experiment [2] (setting [13]) is given as “minimally affected”. For the same compound, the “Microvessel count (Mean ± SD) 250X” value in experiment [3] (50 mpk, 50 mg/kg) was 3.63 ± 1.36 and 5.68 ± 1.74. Moreover, in experiment [3] (50 mpk, 50 mg/kg), the “Microvessel count (Mean ± SD) 400X” value was 2.34 ± 1.01 and 3.58 ± 1.01. Also, in experiment [3] (A-549 tumors), the “Inhibition of angiogenesis” value is “strongly”. Moreover, the “Inhibition of A-549 tumor growth in nude mice” value in experiment [4] is given as “effective”. The “% Tumor growth inhibition” value in experiment [4] (A-549, 50 mpk, day in parentheses in cell) was 62% (30) and 53% (31) and 64% (27). In experiment [6], the “Inhibition of PDGF-stimulated MAPKinase activation” value is on record as “inhibits”. For the same compound, the “aFGF-activation of Erk1/Erk2” value in experiment [7] (setting [13]) is “minimally affected”.

For the origin of these results see patent US8361970B2, “Growth factor binding molecules” (University of South Florida, priority 2000, dated 2013).
